Like-named read-outs stand apart in the source and are kept apart here.
Key:
[1] = system: DTH response in mice; assay type: in vivo; details: DTH; for Inhibition of mouse ear swelling: 24 h after challenge; for inhibition relative to that of the high dose of dexamethasone: versus dexamethasone 1 mg/kg
Procedure: The anti-inflammatory and anti-allergic effects of compounds 1a and 1c were assessed in a mouse model of skin delayed-type hypersensitivity (DTH) reactions and compared to a vehicle control and to the reference drug dexamethasone. DTH reactions are antigen-specific cell-mediated immune responses, driven primarily by T helper type 1 (Th1) cells, similar to the tuberculin immunization response. The immune reaction induced by an ovalbumin challenge to animals previously sensitized with ovalbumin in Complete Freund's Adjuvant, is characterized by swelling (edema) at the site of challenge, e.g. the mouse ear. Dexamethasone, an anti-inflammatory steroid, reduces cell-mediated immune responses and was employed to validate the responsiveness of the assay to pharmacological treatment.
Female BALB/cJW mice were bred at the University of Lodz, Lodz, Poland and housed in groups of 8 in makrolon cages with a 12 h light-dark cycle. Mice were given free access to food (Agropol S.j., Motycz, Poland) and water.
Sensitization: The protein antigen, ovalbumin, was reconstituted in PBS at 4 mg/ml. An ovalbumin-CFA emulsion was prepared by mixing the protein solution with the CFA suspension at a ratio of 1:1, using two Luer-lock syringes. The emulsion was tested by putting a drop of emulsion onto PBS; if the emulsion remained as a tight droplet on the PBS, the emulsion was deemed ready. Mice were sensitized by subcutaneously injecting 25 μL of emulsion into each side of the tail (100 μg ovalbumin per mouse).
Challenge: On the sixth day after sensitization, DTH was elicited by challenging animals subcutaneously (gauge 30 needle, B. Braun Melsungen, Melsungen, Germany) in the left ears with 10 μL of a 1% suspension of heat-aggregated ovalbumin (HOVA) (100 μg ovalbumin per mouse). The right ears were administered subcutaneously with PBS and served to determine the individual differences in ear thicknesses. HOVA was prepared by heating a 5% solution of ovalbumin in saline for 1 h at 80° C. with occasional swirling. After cooling to room temperature and centrifugation (400 g. 10 min at 4° C.), the pellet was washed twice with saline, resuspended at 2% in PBS and aliquots stored at −30° C. Before injection, HOVA was diluted with an equal volume of PBS and sonicated. Ear thickness was measured with a precise spring-loaded caliper (Art. No. 7309, Mitutoyo, Kawasaki, Japan) before challenge, and 24 h after challenge.
Sensitization, challenge and ear thickness measurement were performed under anesthesia (ketamine 80 mg/kg plus xylazine 8 mg/kg, intraperitoneally).
The anti-inflammatory effects of compounds 1a and 1c were compared to a vehicle control (0.5% methyl cellulose solution) and to the reference drug, dexamethasone. Test compounds were given at 25 or 100 mg/kg orally by gavage (Art. No. 432093, Harvard Apparatus GmbH, March-Hugstetten, Germany) 16 h and 3 h before sensitization and then twice daily with the final dose given 3 h prior to ear challenge (a total of 14 administrations). Dexamethasone was given at 0.1 or 1 mg/kg orally by gavage 3 h before sensitization and once daily with the final dose given 3 h prior to antigen challenge (a total of 7 administrations). All administrations were given in a volume of 10 ml/kg.
To account for individual variability, the increase in right ear thickness, before and 24 h after administration of PBS, was subtracted from the HOVA-induced increase in left ear thickness. The increase in ear thickness was calculated by the difference between ear thickness before and 24 h after antigen challenge. Percent inhibition of ear swelling was calculated according to the following formula: % inhibition=100×(IETvehicle−IETcompound)/IETvehicle where IET=(ET24 hrs pc−ETpredose)HOVA-treated ears−(ET24 hrs pc−ETpredose)PBS-treated ears • (IET, increase ear thickness; ET, ear thickness; pc, post challenge)
Mean and standard deviation (SD) were calculated from individual ear edema values. […]

[2] = system: RBL-2H3 cells; experiment: Maximum tolerated concentration (cytotoxicity by lactate dehydrogenase release); assay type: cell-based, Rat; details: for MTC (maximum tolerated concentration): highest concentration not causing cytotoxicity (LDH release), RBL-2H3 cells; for SI (safety index): ratio between MTC and IC50
Text: The safety index (SI) of a test compound is the ratio between the maximum tolerated concentration and the IC50 and is used as a measure of the relative safety of the test compound.

[3] = 100 mg/kg orally twice daily (14 administrations)

CCCCCCCCCCCCCCCCN(C)CC(O)CS(=O)(=O)O (stereo not drawn) [Compound 1a, 2-hydroxy-3-(N-methylhexadecylammonio)propane-sulfonate]
Inhibition of mouse ear swelling ([1]; 25 mg/kg orally twice daily (14 administrations)): 49% | Inhibition of mouse ear swelling [1, 3]: 52% | inhibition relative to that of the high dose of dexamethasone [1]: up to 98% | MTC (maximum tolerated concentration) [2]: 75 µM | SI (safety index) [2]: 10.9

CCCCCCCCCCCCN(C)CC(O)CS(=O)(=O)O (stereo not drawn) [Compound 1c, 2-hydroxy-3-(N-methyldodecylammonio)propanesulfonate]
Inhibition of mouse ear swelling [1, 3]: 41% | inhibition relative to that of the high dose of dexamethasone [1]: 77% | MTC (maximum tolerated concentration) [2]: 200 µM | SI (safety index) [2]: 48.8
